Results as given in patent US11591341B2 (ALIGOS THERAPEUTICS, INC., priority 2019, dated 2023).
pEC50: −log10 of the molar value.

tested on: HBV; test: HBV-DNA Antiviral Assay Using HepG2.117 Cells (intracellular HBV DNA by qPCR); type: cell-based, hepatitis B virus (genotype D); conditions: Hepatitis B virus, HepG2.117
Protocol: The following assay procedure describes the HBV antiviral assay, using HepG2.117 cells, which carry a stably integrated genotype D HBV genome under the control of a Tet-off promoter, and intracellular HBV DNA quantification as endpoint. Cell viability is assessed in parallel by measuring the intracellular ATP content using ATPlite (Perkin Elmer).
On day 0, HepG2.117 cells (which are maintained in routine cell culture with doxycycline present in the medium at a final concentration of 1 μg/mL) were seeded in 96-well plates (white with clear bottom) at a density of 2.0×10^4 cells/well (0.1 mL/well) in medium without doxycycline to induce pgRNA transcription and subsequent formation of HBV particles. The cells were incubated at 37° C. and 5% CO2.
On day 1, medium was removed from each well, the test articles were diluted in culture medium without doxcycyline and 100 μL was added to cell culture wells (9 concentrations, 4-fold dilution). For each plate, 6 untreated (merely DMSO) wells were included. The final concentration of DMSO in the culture medium was 2%. Each plate was prepared in duplicate (one for HBV DNA extraction, one for ATPlite measurement). The cells were incubated at 37° C. and 5% CO2 for 3 days.
On day 4, cell viability was assessed using ATPlite and cell lysates were prepared for HBV DNA extraction and subsequent quantification by qPCR.
Medium was removed from each well and 100 μL of 0.33% NP-40 in H2O was added to each well. Plates were sealed, incubated at 4° C. for 5 mins, vortexed extensively and centrifuged briefly. Next, 35 μL of lysate was added to 65 μL QuickExtract DNA Extraction Solution (Epicentre) in a PCR plate for each well. PCR plate was incubated at 65° C. for 6 mins, 98° C. for 2 mins and finally cooled to 4° C. HBV DNA was then quantified by qPCR with HBV-specific primers and probes as specified in Table 3 using the Bio-Rad SSOAdvanced Universal Probes Supermix on a CFX96 machine (Bio-Rad). The PCR cycle program consisted of 95° C. for 3 mins, followed by 40 cycles at 95° C. for 10 sec and 60° C. for 30 sec.
A DNA standard was prepared by dilution of an IDT gBlock corresponding to the amplicon with concentrations ranging from 10^2 to 10^8 copies/input (i.e. per 4 μL) and used to generate a standard curve by plotting Cq values vs. HBV DNA standard concentration. The quantity of HBV DNA in each sample was determined by interpolating from the standard curve.
Cell viability was calculated as follows: % Cell viability=(luminescence value of test sample)/(average luminescence value of 2% DMSO control)×100%. HBV DNA inhibition was calculated as follows: 100−(HBV DNA copy number of test sample)/(average HBV DNA copy number of 2% DMSO control)×100%. No normalization to entecavir was required due to the excellent dynamic window of this assay. The CC50, EC50 and EC90 values were determined by dose-response curves fitted by GraphPad Prism using “log (agonist) vs. response—Variable slope”.

SMILES | pEC50
O=C(NCc1ccccc1-c1nnco1)c1c2n(c(=O)n1-c1ccc(OC3CC3)cc1)CCN(C(=O)c1ccc(Br)c(Cl)c1)C2 [Example 434, 7-(4-bromo-3-chloro-benzoyl)-2-[4-(cyclopropoxy)phenyl]-N-[[2-(1,3,4-oxadiazol-2-yl)phenyl]methyl]-3-oxo-6,8-dihydro-5H-imidazo[1,5-a]pyrazine-1-carboxamide] | > 7.00
O=C(NCc1ccccc1-c1ccccn1)c1c2n(c(=O)n1-c1ccc(OC3CC3)cc1)CCN(C(=O)c1ccc(Br)c(Cl)c1)C2 [Example 369, 7-(4-bromo-3-chloro-benozyl)-2-[4-(cyclopropoxy)phenyl]-3-oxo-N-[[2-(2-pyridyl)phenyl]methyl]-6,8-dihydro-5H-imidazo[1,5-a]pyrazine-1-carboxamide] | > 7.00
CC(C)Oc1ccc(-n2c(C(=O)NCc3ccccc3)c3n(c2=O)CCN(C(=O)c2ccc(Cl)c(Cl)c2)C3)cc1 [Example 52] | 5.30 to 6.30
COc1ccc(-n2c(C(=O)NCc3ccccc3)c3n(c2=O)CCN(C(=O)c2ccc(Cl)c(Cl)c2)C3)c(C)c1 [Example 87, N-benzyl-7-(3,4-dichlorobenzoyl)-2-(4-methoxy-2-methyl-phenyl)-3-oxo-6,8-dihydro-5H-imidazo[1,5-a]pyrazine-1-carboxamide] | < 5.30
COc1ccc(CN2C[C@H](O)Cn3c(c4n(c3=O)CCN(C(=O)c3ccc(Br)c(Cl)c3)C4)C2=O)cc1 (stereo in doubt) [Example 194, rac-(11S)-4-(4-bromo-3-chloro-benzoyl)-11-hydroxy-13-[(4-methoxyphenyl)methyl]-4,7,9,13-tetrazatricyclo[7.5.0.0^2,7]tetradec-1-ene-8,14-dione] | 6.30 to 7.00
N#Cc1cc(C(=O)N2CCn3c(c(C(=O)NCc4ccccc4-c4ncccn4)n(-c4ccc(-n5cccn5)cc4)c3=O)C2)ccc1Br [Example 426, 7-(4-bromo-3-cyano-benzoyl)-3-oxo-2-(4-pyrazol-1-ylphenyl)-N-[(2-pyrimidin-2-ylphenyl)methyl]-6,8-dihydro-5H-imidazo[1,5-a]pyrazine-1-carboxamide] | 6.30 to 7.00
COc1ccc(-n2c(C(=O)NCc3ccccc3)c3n(c2=O)CC(C2CC2)N(C(=O)c2ccc(Br)c(Cl)c2)C3)cc1 (racemic) [Example 280, rac-(6R)-N-benzyl-7-(4-bromo-3-chloro-benzoyl)-6-cyclopropyl-2-(4-methoxyphenyl)-3-oxo-6,8-dihydro-5H-imidazo[1,5-a]pyrazine-1-carboxamide] | 6.30 to 7.00
C[C@@H]1Cn2c(c(C(=O)NCc3ccccc3-n3cccn3)n(-c3ccc(OC4CC4)cc3)c2=O)CN1C(=O)c1ccc(Br)c(Cl)c1 (stereo in doubt) [Example 439, rac-(6R)-7-(4-bromo-3-chloro-benzoyl)-2-[4-(cyclopropoxy)phenyl]-6-methyl-3-oxo-N-[(2-pyrazol-1-ylphenyl)methyl]-6,8-dihydro-5H-imidazo[1,5-a]pyrazine-1-carboxamide] | 6.30 to 7.00
C[C@H](NC(=O)c1c2n(c(=O)n1-c1ccc(OCC(F)(F)F)cc1)CCN(C(=O)c1ccc(Br)c(Cl)c1)C2)c1ccc(OCC(N)=O)cc1F (stereo in doubt) [Example 320, 7-(4-bromo-3-chloro-benzoyl)-3-oxo-N-[rac-(1S)-1-[4-(2-amino-2-oxo-ethoxy)-2-fluoro-phenyl]ethyl]-2-[4-(2,2,2-trifluoroethoxy)phenyl]-6,8-dihydro-5H-imidazo[1,5-a]pyrazine-1-carboxamide] | 6.30 to 7.00
O=C(NCc1ccccc1-c1ncco1)c1c2n(c(=O)n1-c1ccc(OCC(F)(F)F)cc1)CCN(C(=O)c1ccc(Br)c(Cl)c1)C2 [Example 375, 7-(4-bromo-3-chloro-benzoyl)-N-[(2-oxazol-2-ylphenyl)methyl]-3-oxo-2-[4-(2,2,2-trifluoroethoxy)phenyl]-6,8-dihydro-5H-imidazo[1,5-a]pyrazine-1-carboxamide] | 6.30 to 7.00
CC(NC(=O)c1c2n(c(=O)n1-c1ccc(OC3CC3)cc1)CCN(C(=O)c1ccc(Br)c(Cl)c1)C2)c1ccccc1 (racemic) [Example 179, 7-(4-bromo-3-chloro-benzoyl)-2-[4-(cyclopropoxy)phenyl]-3-oxo-N-[rac-(1R)-1-phenylethyl]-6,8-dihydro-5H-imidazo[1,5-a]pyrazine-1-carboxamide] | 6.30 to 7.00
CC1(C)C(=O)Nc2ccc(-n3c(C(=O)NCc4ccccc4)c4n(c3=O)CCN(C(=O)c3ccc(Br)c(Cl)c3)C4)cc21 [Example 397, N-benzyl-7-(4-bromo-3-chloro-benozyl)-2-(3,3-dimethyl-2-oxo-indolin-5-yl)-3-oxo-6,8-dihydro-5H-imidazo[1,5-a]pyrazine-1-carboxamide] | 5.30 to 6.30
O=C(NCc1ccccc1-c1ncco1)c1c2n(c(=O)n1-c1ccc(OC3CC3)cc1)CCN(C(=O)c1ccc(Br)c(Cl)c1)C2 [Example 366, 7-(4-bromo-3-chloro-benzoyl)-2-[4-(cyclopropoxy)phenyl]-N-[(2-oxazol-2-ylphenyl)methyl]-3-oxo-6,8-dihydro-5H-imidazo[1,5-a]pyrazine-1-carboxamide] | > 7.00
COCC1(N(C)C(=O)c2c3n(c(=O)n2-c2ccc(OC)cc2)CCN(C(=O)c2ccc(Cl)c(Cl)c2)C3)CC1 [Example 111, 7-(3,4-dichlorobenzoyl)-N-[1-(methoxymethyl)cyclopropyl]-2-(4-methoxyphenyl)-N-methyl-3-oxo-6,8-dihydro-5H-imidazo[1,5-a]pyrazine-1-carboxamide] | < 5.30
COc1ccc(-n2c(C(=O)NCc3cccc(C(F)(F)F)c3)c3n(c2=O)CCN(C(=O)c2ccc(Br)c(Cl)c2)C3)cc1 [Example 152, 7-(4-bromo-3-chloro-benzoyl)-2-(4-methoxyphenyl)-3-oxo-N-[[3-(trifluoromethyl)phenyl]methyl]-6,8-dihydro-5H-imidazo[1,5-a]pyrazine-1-carboxamide] | 6.30 to 7.00
COc1ccc(-n2c(C(=O)NCc3ccc(=O)[nH]c3)c3n(c2=O)CCN(C(=O)c2ccc(Br)c(Cl)c2)C3)cc1 [Example 192, 7-(4-bromo-3-chloro-benzoyl)-2-(4-methoxyphenyl)-3-oxo-N-[(6-oxo-1H-pyridin-3-yl)methyl]-6,8-dihydro-5H-imidazo[1,5-a]pyrazine-1-carboxamide] | < 5.30
COc1ccc(-n2c(C(=O)NCc3cnccn3)c3n(c2=O)CCN(C(=O)c2ccc(Br)c(Cl)c2)C3)cc1 [Example 171, 7-(4-bromo-3-chloro-benzoyl)-2-(4-methoxyphenyl)-3-oxo-N-(pyrazin-2-ylmethyl)-6,8-dihydro-5H-imidazo[1,5-a]pyrazine-1-carboxamide] | < 5.30
CCOC(=O)Cc1ccc(CNC(=O)c2c3n(c(=O)n2-c2ccc(OC)cc2)CCN(C(=O)c2ccc(Br)c(Cl)c2)C3)cc1 [Example 196, ethyl 2-[4-[[[7-(4-bromo-3-chloro-benzoyl)-2-(4-methoxyphenyl)-3-oxo-6,8-dihydro-5H-imidazo[1,5-a]pyrazine-1-carbonyl]amino]methyl]phenyl]acetate] | < 5.30
O=C(NCc1c(F)ccc2nccnc12)c1c2n(c(=O)n1-c1ccc(OC3CC3)cc1)CCN(C(=O)c1ccc(Br)c(Cl)c1)C2 [Example 461, 7-(4-bromo-3-chloro-benozyl)-2-[4-(cyclopropoxy)phenyl]-N-[(6-fluoroquinoxalin-5-yl)methyl]-3-oxo-6,8-dihydro-5H-imidazo[1,5-a]pyrazine-1-carboxamide] | > 7.00
COc1ccc(-n2c(C(=O)N[C@H](C)c3ccccc3)c3n(c2=O)CCN(C(=O)c2ccc(Cl)c(Cl)c2)C3)cc1 (stereo in doubt) [Example 68, 7-(3,4-dichlorobenzoyl)-2-(4-methoxyphenyl)-3-oxo-N-[rac-(1R)-1-phenylethyl]-6,8-dihydro-5H-imidazo[1,5-a]pyrazine-1-carboxamide] | 5.30 to 6.30
C[C@H](NC(=O)c1c2n(c(=O)n1-c1ccc(OCC(F)(F)F)cc1)CCN(C(=O)c1ccc(Br)c(Cl)c1)C2)c1ccc(OCC#N)cc1F (stereo in doubt) [Example 345, 7-(4-bromo-3-chloro-benzoyl)-3-oxo-N-[rac-(1S)-1-[4-(cyanomethoxy)-2-fluoro-phenyl]ethyl]-2-[4-(2,2,2-trifluoroethoxy)phenyl]-6,8-dihydro-5H-imidazo[1,5-a]pyrazine-1-carboxamide] | 6.30 to 7.00
